Results on three compounds are retold here after patent US9126959B2, “PPAR-sparing thiazolidinedione salts for the treatment of metabolic diseases” (Metabolic Solutions Development Company, LLC, priority 2009, dated 2015).

Series [1] is described as follows: Moisture sorption analysis of metal salts of Compound B. In kind it is physicochemical. Particulars: 25° C. On the procedure:
Metal salts of compounds of Formula I were characterized using XRPD, DSC, thermogravimetry, and moisture sorption analyses. Note that XRPD patterns described below, and provided in FIGS. 1 and 5 were obtained using a Bruker Model D8 X-Ray Diffractometer. Thermogravimetric analyses, DSC analyses, and moisture sorption analyses were performed using a TA Instruments Universal V4.4A instrument.
FIG. 1 provides the XRPD pattern of a sample of a sodium salt of Compound B Referring to FIGS. 2-4, thermogravimetric, DSC, and moisture sorption analyses were performed on a sodium salt of Compound B. Thermogravimetric analysis was conducted using 7.5450 mg of the sodium salt and an instrument setting of 10° C./min. The DSC analysis was performed using a 2.00 mg sample of the sodium salt and an instrument setting of 10° C./min. The moisture sorption analysis was performed on 14.07 mg of sodium salt over a relative humidity range of 5% to 95% at 25° C. with 180 minute max. equilibration time and data sampling every 2 minutes.
FIG. 5 provides the XRPD pattern of a sample of a potassium salt of Compound B Referring to FIGS. 6-8, thermogravimetric, DSC, and moisture sorption analyses were performed on a potassium salt of Compound B. Thermogravimetric analysis was conducted using 15.9290 mg of the potassium salt and an instrument setting of 10° C./min. […]

Series [2] is described as follows: AUC of compound related materials after oral dosing of Compound B free acid or its Na or K salt. In kind it is in vivo. Particulars: cynomolgus monkeys, 250 mg free acid equivalents, formulated tablets; compared with free acid. On the procedure:
Referring to FIG. 10, the area under the curve (AUC) of compound related materials was compared following dosing of 250 mg of Compound B as powder in capsules of free acid (PIC), formulated tablets of micronized free acid, or formulated tablets of the Na or K salt of Compound B given at the same free acid equivalents. (N=4 cynomolgus monkeys). The formulated, compressed tablet also contained in each case approximately 40.5% lactose, 16.8% microcrystalline cellulose, 1.9% Croscarmellose sodium, 0.5% colloidal silicon dioxide, and 0.9% magnesium stearate.

A short description of series [3]: Bioavailability of sodium salt of Compound A, oral capsule versus iv injection, crossover design. Particulars: male cynomolgus monkeys, oral gavage, 90 mg free base equivalents in gelatin capsules; compared with free base. In kind it is in vivo. The procedure: The monkeys fasted overnight and were dosed by oral gavage washed down with 10 ml tap water. Blood samples were taken at 0.25, 0.5, 1, 2, 3, 4, 6, 9, 12, 24, and 48 hours after a single dosage was administered and assayed for drug related materials with a LCMS assay using an internal standard. 90 mg of drug was put in 00 gelatin capsules containing 90 mg of free base equivalents. This was compared to an iv injection of 2 ml/kg and 45 mg of free base solution in 50% hydroxypropyl b-cyclodextran. The absolute availability versus an iv injection was determined for both parent compound and major metabolite.

The test system of a further series is diabetic KKAy mouse. Put plainly: Blood glucose lowering in the diabetic KKAy mouse. Particulars: diabetic KKAy mice, gavage once daily, measured after 4 daily doses. Type of series: in vivo. On the procedure: In these experiments, free base or sodium salt was given to diabetic KKAy mice (N=6) and blood glucose was measured after 4 days of daily treatment at the doses indicated. KKAy mice, 8-12 weeks of age, were given the doses of the compounds according to the dosages on the X axis of FIG. 11. The compounds were given by gavage once daily at 10 mg/kg. On the fifth day (after 4 daily doses at the levels show) a blood sample was taken to measure plasma glucose.

Each structure is given as a SMILES string. Structures can show the parent of a compound that is named as a salt.

Regarding `COc1cccc(C(=O)COc2ccc(CC3SC(=O)[N-]C3=O)cc2)c1.[K+]` (stereo not shown) [potassium salt of Compound B, Potassium 5-{4-[2-(3-methoxyphenyl)-2-oxoethoxy]benzyl}-2,4-dioxo-1,3-thiazolidin-3-ide], the water uptake in series [1] (relative humidity increased from ~5% to ~95% RH) is listed as about 21.1 wt %. Besides, the “bioavailability (AUC of compound related materials)” value in series [2] is listed as “significantly higher bioavailability”.

As for `CCc1ccc(C(=O)COc2ccc(CC3SC(=O)NC3=O)cc2)nc1` (stereo not shown) [sodium salt of Compound A, 5-(4-(2-(5-ethylpyridin-2-yl)-2-oxoethoxy)benzyl)-1,3-thiazolidine-2,4-dione], in series [3], the “absolute availability versus an iv injection, major metabolite” value is recorded as “significantly higher bioavailability” and the “absolute availability versus an iv injection, parent compound” value is “significantly higher bioavailability”. Besides, the “lowering blood glucose (plasma glucose)” value in the series with diabetic KKAy mouse is reported as “excellent dose response for lowering blood glucose”.

On to `COc1cccc(C(=O)COc2ccc(CC3SC(=O)[N-]C3=O)cc2)c1.[Na+]` (stereo not shown) [sodium salt of Compound B, Sodium 5-{4-[2-(3-methoxyphenyl)-2-oxoethoxy]benzyl}-2,4-dioxo-1,3-thiazolidin-3-ide], for which, in series [1] (between ~6% and ~95% RH), the moisture uptake is given as about 10.0 wt %. Further, the “bioavailability (AUC of compound related materials)” value in series [2] is reported as “significantly higher bioavailability”.
